Test results reported in ChEMBL document CHEMBL1909046, “DrugMatrix in vitro pharmacology data”.

Assays:
[1] = target: Mitogen-activated protein kinase 1 (Homo sapiens, UniProt P28482); assay: DRUGMATRIX: Protein Serine/Threonine Kinase, ERK2 enzyme inhibition (substrate: Myelin Basic Protein); set-up: species or system Escherichia coli; settings: Not Active = under 50% inhibition at 10 µM
Glucocorticoid receptor = target: T1, Glucocorticoid receptor (Homo sapiens, UniProt P04150); settings: hela s3; also: in other assays of this panel Not Active means under 50% inhibition at 10 µM
T1 sequence (P04150 whole entry): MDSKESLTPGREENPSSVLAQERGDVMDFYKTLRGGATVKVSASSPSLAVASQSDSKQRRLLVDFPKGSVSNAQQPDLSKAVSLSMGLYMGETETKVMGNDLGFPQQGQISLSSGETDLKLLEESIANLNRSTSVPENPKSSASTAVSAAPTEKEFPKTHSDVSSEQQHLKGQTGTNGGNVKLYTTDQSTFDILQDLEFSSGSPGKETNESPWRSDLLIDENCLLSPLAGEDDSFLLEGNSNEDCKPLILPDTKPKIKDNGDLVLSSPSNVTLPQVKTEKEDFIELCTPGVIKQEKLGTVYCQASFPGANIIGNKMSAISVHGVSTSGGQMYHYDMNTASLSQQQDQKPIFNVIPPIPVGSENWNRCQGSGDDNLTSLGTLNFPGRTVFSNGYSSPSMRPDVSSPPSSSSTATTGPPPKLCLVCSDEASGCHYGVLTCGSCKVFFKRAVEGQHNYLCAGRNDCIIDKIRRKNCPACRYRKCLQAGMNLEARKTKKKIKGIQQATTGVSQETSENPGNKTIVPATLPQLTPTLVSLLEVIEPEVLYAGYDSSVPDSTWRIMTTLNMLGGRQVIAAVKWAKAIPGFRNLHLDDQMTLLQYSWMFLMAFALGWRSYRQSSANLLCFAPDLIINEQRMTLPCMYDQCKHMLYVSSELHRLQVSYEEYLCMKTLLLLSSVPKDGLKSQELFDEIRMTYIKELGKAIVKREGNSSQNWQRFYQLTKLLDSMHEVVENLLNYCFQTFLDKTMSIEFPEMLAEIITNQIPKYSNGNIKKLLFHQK

[2] = DRUGMATRIX: Phosphodiesterase PDE4 enzyme inhibition (substrate: [3H]cAMP + cAMP); settings: u-937; Not Active = under 50% inhibition at 10 µM
[3] = target: Kappa-type opioid receptor (Homo sapiens, UniProt P41145); assay: DRUGMATRIX: Opiate kappa (OP2, KOP) radioligand binding (ligand: [3H] Diprenorphine); assay type: cell membranes, HEK293, Membrane; settings: hek293; Not Active = under 50% inhibition at 10 µM
[4] = target: 5-hydroxytryptamine receptor 2B (Homo sapiens, UniProt P41595); assay type: cell membranes, CHO-K1, Membrane; settings: cho-k1; also: in other assays of this panel Not Active means under 50% inhibition at 10 µM
[5] = DRUGMATRIX: Sodium/nucleoside co-transporter radioligand binding (ligand: nitrobenzylthioinosine); assay type: cell membranes, Cavia porcellus, Dunkin-Hartley, Cerebral cortex, Membrane; settings: Not Active = under 50% inhibition at 10 µM

Chain of Kappa-type opioid receptor (P41145 whole entry): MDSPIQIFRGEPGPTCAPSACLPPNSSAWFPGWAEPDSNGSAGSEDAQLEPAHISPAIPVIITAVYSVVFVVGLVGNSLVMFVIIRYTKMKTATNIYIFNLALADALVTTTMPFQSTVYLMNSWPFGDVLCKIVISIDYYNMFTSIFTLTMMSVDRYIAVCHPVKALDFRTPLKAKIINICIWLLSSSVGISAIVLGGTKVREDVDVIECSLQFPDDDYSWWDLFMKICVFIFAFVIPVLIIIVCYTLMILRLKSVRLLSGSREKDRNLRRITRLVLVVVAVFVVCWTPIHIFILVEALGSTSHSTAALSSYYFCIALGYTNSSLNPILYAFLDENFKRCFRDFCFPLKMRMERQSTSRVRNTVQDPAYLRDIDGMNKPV
Chain of Mitogen-activated protein kinase 1 (P28482 whole entry): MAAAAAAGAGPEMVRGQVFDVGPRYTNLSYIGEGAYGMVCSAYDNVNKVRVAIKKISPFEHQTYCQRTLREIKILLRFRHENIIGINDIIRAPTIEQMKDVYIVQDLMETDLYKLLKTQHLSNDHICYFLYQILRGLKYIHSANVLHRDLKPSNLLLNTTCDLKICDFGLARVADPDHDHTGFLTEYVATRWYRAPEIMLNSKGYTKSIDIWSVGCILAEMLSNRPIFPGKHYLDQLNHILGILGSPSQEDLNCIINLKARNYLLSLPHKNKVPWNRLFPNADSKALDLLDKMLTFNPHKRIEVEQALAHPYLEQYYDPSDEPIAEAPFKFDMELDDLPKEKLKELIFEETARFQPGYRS
Chain of 5-hydroxytryptamine receptor 2B (P41595 whole entry): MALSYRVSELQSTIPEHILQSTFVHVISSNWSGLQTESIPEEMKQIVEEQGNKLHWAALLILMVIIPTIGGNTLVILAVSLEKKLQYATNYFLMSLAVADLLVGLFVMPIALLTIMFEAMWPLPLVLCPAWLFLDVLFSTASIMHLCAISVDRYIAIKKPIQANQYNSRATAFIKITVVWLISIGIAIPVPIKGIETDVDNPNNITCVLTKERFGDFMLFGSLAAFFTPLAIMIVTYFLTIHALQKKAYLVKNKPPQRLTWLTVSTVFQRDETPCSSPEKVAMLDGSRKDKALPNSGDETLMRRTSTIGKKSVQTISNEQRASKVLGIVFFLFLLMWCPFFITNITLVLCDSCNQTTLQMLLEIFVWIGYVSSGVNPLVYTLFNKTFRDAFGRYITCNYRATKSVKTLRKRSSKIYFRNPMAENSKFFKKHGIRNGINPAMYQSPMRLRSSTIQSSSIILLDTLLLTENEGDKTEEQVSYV

O=C(O)c1cn(-c2ccc(F)cc2)c2cc(N3CCNCC3)c(F)cc2c1=O [SARAFLOXACIN]
Not Active: IC50 [1] | IC50 (Glucocorticoid receptor) | IC50 [2] | Ki [2] | IC50 [3] | IC50 [4] | IC50 [5] | Ki [5]

CC(C)NCC(O)c1ccc(NS(C)(=O)=O)cc1 (stereo not drawn) [SOTALOL]
Not Active: IC50 [1] | IC50 (Glucocorticoid receptor) | IC50 [2] | Ki [2] | IC50 [3] | IC50 [4] | IC50 [5] | Ki [5]

O=C1C(CC[S+]([O-])c2ccccc2)C(=O)N(c2ccccc2)N1c1ccccc1 (stereo not drawn) [SULFINPYRAZONE]
Not Active: IC50 [1] | IC50 (Glucocorticoid receptor) | IC50 [2] | Ki [2] | IC50 [3] | IC50 [4] | IC50 [5] | Ki [5]

NC(=O)N1C(=O)/C(=C(\O)c2cccs2)c2cc(Cl)ccc21 [TENIDAP]
Not Active: IC50 [1] | IC50 (Glucocorticoid receptor) | IC50 [2] | Ki [2] | IC50 [3] | IC50 [4] | IC50 [5] | Ki [5]

COc1cc2nc(N3CCN(C(=O)C4CCCO4)CC3)nc(N)c2cc1OC (stereo not drawn) [TERAZOSIN]
Not Active: IC50 [1] | IC50 (Glucocorticoid receptor) | IC50 [2] | Ki [2] | IC50 [3] | IC50 [4] | IC50 [5] | Ki [5]

CN(C/C=C/C#CC(C)(C)C)Cc1cccc2ccccc12 [TERBINAFINE]
Not Active: IC50 [1] | IC50 (Glucocorticoid receptor) | IC50 [2] | Ki [2] | IC50 [3] | IC50 [4] | IC50 [5] | Ki [5]

CCCCNc1ccc(C(=O)OCCN(C)C)cc1 [TETRACAINE]
Not Active: IC50 [1] | IC50 (Glucocorticoid receptor) | IC50 [2] | Ki [2] | IC50 [3] | Ki [4] | IC50 [5] | Ki [5]

CS(=O)(=O)c1ccc([C@@H](O)[C@@H](CO)NC(=O)C(Cl)Cl)cc1 [THIAMPHENICOL]
Not Active: IC50 [1] | IC50 (Glucocorticoid receptor) | IC50 [2] | Ki [2] | IC50 [3] | IC50 [4] | IC50 [5] | Ki [5]

CCN(CC)CCNC(=O)c1cc(S(C)(=O)=O)ccc1OC [TIAPRIDE]
Not Active: IC50 [1] | IC50 (Glucocorticoid receptor) | IC50 [2] | Ki [2] | IC50 [3] | IC50 [4] | IC50 [5] | Ki [5]

NC1CCN(c2nc3c(cc2F)c(=O)c(C(=O)O)cn3-c2ccc(F)cc2F)C1 (stereo not drawn) [TOSUFLOXACIN]
Not Active: IC50 [1] | IC50 (Glucocorticoid receptor) | IC50 [2] | Ki [2] | IC50 [3] | IC50 [4] | IC50 [5] | Ki [5]

CC(c1cc2ccccc2s1)N(O)C(N)=O (stereo not drawn) [ZILEUTON]
Not Active: IC50 [1] | IC50 (Glucocorticoid receptor) | IC50 [2] | Ki [2] | IC50 [3] | IC50 [4] | IC50 [5] | Ki [5]
